Results as given in PubChem BioAssay AID2346 (The Scripps Research Institute Molecular Screening Center, 2010).

What follows are compounds tested against Sphingosine 1-phosphate receptor 4 (Homo sapiens) (UniProt O95977) (assay: potency of S1P4 blockers – cell-based, fluorescence, synthesized analogues, late-stage follow-up (AID 2346)). Conditions: S1P4-expressing cells, antagonist fluorescence read-out; cut-off not given, nearly all actives have IC50 up to about 0.49 µM.
Sequence of Sphingosine 1-phosphate receptor 4 (Homo sapiens) (O95977 whole entry, looked up): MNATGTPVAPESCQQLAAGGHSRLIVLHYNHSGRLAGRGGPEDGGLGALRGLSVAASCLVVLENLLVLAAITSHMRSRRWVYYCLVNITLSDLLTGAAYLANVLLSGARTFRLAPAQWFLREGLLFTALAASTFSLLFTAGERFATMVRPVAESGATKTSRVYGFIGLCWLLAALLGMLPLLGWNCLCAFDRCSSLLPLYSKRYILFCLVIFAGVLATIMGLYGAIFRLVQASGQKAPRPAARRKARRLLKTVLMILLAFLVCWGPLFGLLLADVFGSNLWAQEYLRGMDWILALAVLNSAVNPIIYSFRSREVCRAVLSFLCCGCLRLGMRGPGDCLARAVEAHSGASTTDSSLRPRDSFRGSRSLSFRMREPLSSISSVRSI

IC50, active:
CC(C)c1cccc(C(C)C)c1NC(=O)c1ccc(-c2cc(Cl)ccc2Cl)o1 105 nM
Cc1ccc(S(C)(=O)=O)c(C)c1NC(=O)c1ccc(-c2cc(Cl)ccc2Cl)o1 302 nM
Cc1cscc1-c1ccc(C(=O)Nc2c(C)cccc2C)o1 286 nM
Cc1cccc(C)c1NC(=O)c1ccc(-c2cc(F)ccc2F)o1 308 nM
COc1cccc(OC)c1NC(=O)c1ccc(-c2cc(Cl)ccc2Cl)o1 417 nM
COc1cccc(C)c1NC(=O)c1ccc(-c2cc(Cl)ccc2Cl)o1 163 nM
CCc1cccc(CC)c1NC(=O)c1ccc(-c2cc(Cl)ccc2Cl)o1 89 nM
Cc1cccc(C)c1NC(=O)c1ccc(-c2cccc(Cl)c2)o1 497 nM
Cc1ccc(C)c(NC(=O)c2ccc(-c3cc(Cl)ccc3Cl)o2)c1 165 nM
Cc1ccc2ccccc2c1NC(=O)c1ccc(-c2cc(Cl)ccc2Cl)o1 253 nM
Cc1cccc(Cl)c1NC(=O)c1ccc(-c2cc(Cl)ccc2Cl)o1 169 nM
